The target of the assay is N. europaea cyt P460 (Nitrosomonas europaea, UniProt Q50927). The experiment in a line: biochemical.
Chain of N. europaea cyt P460 (Q50927 27-198): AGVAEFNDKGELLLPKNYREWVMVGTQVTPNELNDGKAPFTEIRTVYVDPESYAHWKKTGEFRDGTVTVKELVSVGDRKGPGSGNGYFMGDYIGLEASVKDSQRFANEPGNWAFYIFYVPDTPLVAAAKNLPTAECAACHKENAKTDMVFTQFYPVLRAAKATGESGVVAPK

Compound `NO` [hydroxylamine] showed a Kd of 9 ± 1 mM.
